According to PubChem BioAssay (NCI):
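Five concentrations, 48 hours, 96-well plates. TGI denotes the concentration required for complete inhibition of growth.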

How the values were obtained:
Test in all cases: NCI anticancer screen, dose series, 48 h
TK-10 renal = test system: TK-10 renal
RPMI-8226 leukemia = test system: RPMI-8226 leukemia
OVCAR-5 ovarian = test system: OVCAR-5 ovarian
OVCAR-4 ovarian = test system: OVCAR-4 ovarian
K-562 leukemia = test system: K-562 leukemia
SR leukemia = test system: SR leukemia
SNB-19 CNS = test system: SNB-19 CNS
UACC-257 melanoma = test system: UACC-257 melanoma
SK-OV-3 ovarian = test system: SK-OV-3 ovarian
IGROV1 ovarian = test system: IGROV1 ovarian
EKVX NSCLC = test system: EKVX NSCLC
A549 NSCLC = test system: A549 NSCLC
SK-MEL-28 melanoma = test system: SK-MEL-28 melanoma
SF-539 CNS = test system: SF-539 CNS
DU-145 prostate = test system: DU-145 prostate
RXF 393 renal = test system: RXF 393 renal
NCI-H460 lung = test system: NCI-H460 lung
MDA-MB-231 breast = test system: MDA-MB-231 breast
MDA-N = test system: MDA-N
T-47D breast = test system: T-47D breast

Measured: TGI

OC12c3ccccc3C1CCCCCCCCCC21OCCCO1 (stereo not given)
not listed: DU-145 prostate | RXF 393 renal | NCI-H460 lung | MDA-MB-231 breast | MDA-N | T-47D breast
> 100 µM: all other assays above

COc1cccc(N2C(=O)CSC2c2c[nH]c3ccccc23)c1 (stereo not given)
not listed: RPMI-8226 leukemia | A549 NSCLC | SF-539 CNS
> 100 µM: all other assays above

CCOC(=O)c1csc(NC(=O)CN2CCCCC2)n1
not listed: SR leukemia
> 100 µM: all other assays above
